The target in one test is T1, YtnPDH82 (Bacillus velezensis, UniProt A7Z7T2).
T1 construct: gene RBAM_027000; full length, pET28a EcoRI/XhoI, His6 at N- and C-terminus, E. coli BL21, Ni-NTA; primer-encoded start METLNIGNF
Kind of test: UPLC-QTOF MS of residual AHL (m/z […]), Lineweaver-Burk. Format: biochemical. The settings on record: pH 6.5, 28 °C, 45 min; substrate 200-350 µM (far below the printed Km).

The test system of the next test is T2, AiiADH82.
T2 construct: gene aiiA; full length, pET28a NdeI/XhoI, His6 at N- and C-terminus, E. coli BL21, Ni-NTA; primer-encoded start MTVKKLYF
The test is described as above. It counts as biochemical, Bacillus velezensis. The settings on record: pH 6.5, 28 °C, 45 min; substrate 200-350 µM (far below the printed Km).

Structures are written as SMILES.

T1 sequence (A7Z7T2 entry or part of it): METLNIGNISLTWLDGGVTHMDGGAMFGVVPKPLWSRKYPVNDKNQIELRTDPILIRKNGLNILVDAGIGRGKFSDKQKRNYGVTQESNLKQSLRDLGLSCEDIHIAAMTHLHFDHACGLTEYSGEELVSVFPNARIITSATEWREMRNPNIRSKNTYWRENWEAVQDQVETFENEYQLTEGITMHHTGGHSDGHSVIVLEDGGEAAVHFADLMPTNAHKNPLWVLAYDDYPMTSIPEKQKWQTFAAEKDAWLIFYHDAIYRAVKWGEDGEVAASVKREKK

Turning to `CCCC(=O)CC(=O)N[C@H]1CCOC1=O` [3-oxo-C6-HSL], the Km – broadly, the concentration of substrate that gives half-maximal velocity – came to 15.3 mM on YtnPDH82 and 7.8 mM with AiiADH82.

(Values after publication PMC12388617, “Development and Biochemical Characterization of Quorum Quenching Enzyme from Deep-Sea Bacillus velezensis DH82” (Microorganisms, 2025).)
